Patent US20120122679A1, “MESOIONIC PESTICIDES” (E. I. Du Pont De Nemours and Company, priority 2009, published 2012)

Tested on: green peach aphid (Myzus persicae)
Test: Test F: control of green peach aphid on radish plant, contact and/or systemic
Assay type: in vivo
Conditions: sprayed at 50 ppm; assessed after 6 days
Procedure: Test compounds were formulated using a solution containing 10% acetone, 90% water and 300 ppm X-77® Spreader Lo-Foam Formula non-ionic surfactant containing alkylarylpolyoxyethylene, free fatty acids, glycols and isopropanol (Loveland Industries, Inc. Greeley, Colorado, USA). The formulated compounds were applied in 1 mL of liquid through a SUJ2 atomizer nozzle with ⅛ JJ custom body (Spraying Systems Co. Wheaton, Ill., USA) positioned 1.27 cm (0.5 inches) above the top of each test unit. Test compounds were sprayed at 250 and/or 50 ppm, and replicated three times. After spraying of the formulated test compound, each test unit was allowed to dry for 1 h and then a black, screened cap was placed on top. The test units were held for 6 days in a growth chamber at 25° C. and 70% relative humidity. Plant feeding damage was then visually assessed based on foliage consumed.
For evaluating control of green peach aphid (Myzus persicae) through contact and/or systemic means, the test unit consisted, of a small open container with a 12-15-day-old radish plant inside. […]
Test compounds were formulated and sprayed at 250 ppm and/or 50 ppm as described for Test A. The applications were replicated three times. […] Each test unit was then visually assessed for insect mortality.

## O=c1c(SC(F)(F)F)c([O-])[n+](Cc2cnc(Cl)s2)c2ccccn12 [Compound 102]
  mortality (at least 80% mortality): at least 80%
